Measured values reported in PubChem BioAssay (NCI).
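These data come from cells grown in 96-well plates and exposed to compound for 48 hours at five concentrations. At the GI50, growth is halved. TGI marks complete inhibition of growth.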

Experiments:
Experiment in all cases: inhibition of tumour cell growth, NCI panel, 48 h
UACC-62 melanoma = test system: UACC-62 melanoma
IGROV1 ovarian = test system: IGROV1 ovarian
T-47D breast = test system: T-47D breast
MALME-3M melanoma = test system: MALME-3M melanoma
SF-295 CNS = test system: SF-295 CNS
MCF7 breast = test system: MCF7 breast
SW-620 colon = test system: SW-620 colon
KM12 colon = test system: KM12 colon
UO-31 renal = test system: UO-31 renal
HCT-116 colon = test system: HCT-116 colon
NCI-H226 lung = test system: NCI-H226 lung
HCT-15 colon = test system: HCT-15 colon
OVCAR-3 ovarian = test system: OVCAR-3 ovarian
COLO 205 colon = test system: COLO 205 colon
RPMI-8226 leukemia = test system: RPMI-8226 leukemia
U251 CNS = test system: U251 CNS
LOX IMVI melanoma = test system: LOX IMVI melanoma
SF-268 CNS = test system: SF-268 CNS
UACC-257 melanoma = test system: UACC-257 melanoma
HS 578T breast = test system: HS 578T breast
OVCAR-4 ovarian = test system: OVCAR-4 ovarian
PC-3 prostate = test system: PC-3 prostate
SF-539 CNS = test system: SF-539 CNS
SN12C renal = test system: SN12C renal
ACHN renal = test system: ACHN renal
CCRF-CEM leukemia = test system: CCRF-CEM leukemia
HT29 colon = test system: HT29 colon
SR leukemia = test system: SR leukemia
CAKI-1 renal = test system: CAKI-1 renal
NCI-H522 lung = test system: NCI-H522 lung
TK-10 renal = test system: TK-10 renal
NCI/ADR-RES ovarian = test system: NCI/ADR-RES ovarian
NCI-H23 lung = test system: NCI-H23 lung
BT-549 breast = test system: BT-549 breast
SK-MEL-5 melanoma = test system: SK-MEL-5 melanoma
DU-145 prostate = test system: DU-145 prostate
HCC-2998 colon = test system: HCC-2998 colon
786-0 renal = test system: 786-0 renal
SK-MEL-28 melanoma = test system: SK-MEL-28 melanoma
A549 NSCLC = test system: A549 NSCLC
MOLT-4 leukemia = test system: MOLT-4 leukemia
MDA-MB-435 = test system: MDA-MB-435
EKVX NSCLC = test system: EKVX NSCLC
MDA-MB-468 breast = test system: MDA-MB-468 breast
SNB-75 CNS = test system: SNB-75 CNS
HOP-92 NSCLC = test system: HOP-92 NSCLC
MDA-MB-231 breast = test system: MDA-MB-231 breast
RXF 393 renal = test system: RXF 393 renal
HOP-62 NSCLC = test system: HOP-62 NSCLC
SNB-19 CNS = test system: SNB-19 CNS
M14 melanoma = test system: M14 melanoma
OVCAR-5 ovarian = test system: OVCAR-5 ovarian
K-562 leukemia = test system: K-562 leukemia
HL-60(TB) leukemia = test system: HL-60(TB) leukemia
SK-MEL-2 melanoma = test system: SK-MEL-2 melanoma
SK-OV-3 ovarian = test system: SK-OV-3 ovarian
NCI-H460 lung = test system: NCI-H460 lung
A498 renal = test system: A498 renal
OVCAR-8 ovarian = test system: OVCAR-8 ovarian

## COc1ccc(-c2nc(S(=O)(=O)c3ccc(C)cc3)c(S(=O)(=O)CC(=O)N(C)Cc3ccccc3)o2)cc1
UACC-62 melanoma
  GI50: 11.7 µM
  TGI: 23.9 µM
IGROV1 ovarian
  GI50: 11.1 µM
  TGI: 23.5 µM
T-47D breast
  GI50: 6.28 µM
  TGI: 25.2 µM
MALME-3M melanoma
  GI50: 14.8 µM
  TGI: 29.6 µM
SF-295 CNS
  GI50: 12.7 µM
  TGI: 25.5 µM
MCF7 breast
  GI50: 3.89 µM
  TGI: 16.8 µM
SW-620 colon
  GI50: 4.25 µM
  TGI: 17.5 µM
KM12 colon
  GI50: 15.8 µM
  TGI: 32.3 µM
UO-31 renal
  GI50: 10.3 µM
  TGI: 22 µM
HCT-116 colon
  GI50: 5.02 µM
  TGI: 19.6 µM
NCI-H226 lung
  GI50: 14.8 µM
  TGI: 39.6 µM
HCT-15 colon
  GI50: 6.17 µM
  TGI: 20.8 µM
OVCAR-3 ovarian
  GI50: 4.25 µM
  TGI: 16.2 µM
COLO 205 colon
  GI50: 12.2 µM
  TGI: 41.7 µM
RPMI-8226 leukemia
  GI50: 4.45 µM
  TGI: > 100 µM
U251 CNS
  GI50: 15.4 µM
  TGI: 29.1 µM
LOX IMVI melanoma
  GI50: 2.79 µM
  TGI: 10.2 µM
SF-268 CNS
  GI50: 12.1 µM
  TGI: 29.7 µM
UACC-257 melanoma
  GI50: 13.1 µM
  TGI: 26.3 µM
HS 578T breast
  GI50: 4.85 µM
  TGI: 33.5 µM
OVCAR-4 ovarian
  GI50: 14.2 µM
  TGI: 36.7 µM
PC-3 prostate
  GI50: 12.1 µM
  TGI: 44.9 µM
SF-539 CNS
  GI50: 10.7 µM
  TGI: 22.5 µM
SN12C renal
  GI50: 10.5 µM
  TGI: 22.3 µM
ACHN renal
  GI50: 10.8 µM
  TGI: 22.7 µM
CCRF-CEM leukemia
  GI50: 3.5 µM
  TGI: > 100 µM
HT29 colon
  GI50: 9.39 µM
  TGI: 30.5 µM
SR leukemia
  GI50: 3.27 µM
  TGI: > 100 µM
CAKI-1 renal
  GI50: 5.76 µM
  TGI: 18.6 µM
NCI-H522 lung
  GI50: 2.19 µM
  TGI: 6.94 µM
TK-10 renal
  GI50: 13.2 µM
  TGI: 26.5 µM
NCI/ADR-RES ovarian
  GI50: 15.2 µM
  TGI: 45.2 µM
NCI-H23 lung
  GI50: 12.5 µM
  TGI: 25.7 µM
BT-549 breast
  GI50: 12.3 µM
  TGI: 26 µM
SK-MEL-5 melanoma
  GI50: 14.3 µM
  TGI: 27.7 µM
DU-145 prostate
  GI50: 10.2 µM
  TGI: 21.8 µM
HCC-2998 colon
  GI50: 13.3 µM
  TGI: 26.1 µM
786-0 renal
  GI50: 8.89 µM
  TGI: 23 µM
SK-MEL-28 melanoma
  GI50: 14.3 µM
  TGI: 27.3 µM
A549 NSCLC
  GI50: 14.6 µM
  TGI: 33.6 µM
MOLT-4 leukemia
  GI50: 4.73 µM
  TGI: > 100 µM
MDA-MB-435
  GI50: 7.32 µM
  TGI: 31.1 µM
EKVX NSCLC
  GI50: 11.7 µM
  TGI: 25.2 µM
MDA-MB-468 breast
  GI50: 2.41 µM
  TGI: 8 µM
SNB-75 CNS
  GI50: 4.82 µM
  TGI: 18.7 µM
HOP-92 NSCLC
  GI50: 14 µM
  TGI: 39.2 µM
MDA-MB-231 breast
  GI50: 9.27 µM
  TGI: 21.6 µM
RXF 393 renal
  GI50: 5.05 µM
  TGI: 16.9 µM
HOP-62 NSCLC
  GI50: 16 µM
  TGI: 32.5 µM
SNB-19 CNS
  GI50: 14.4 µM
  TGI: 27.5 µM
M14 melanoma
  GI50: 12.4 µM
  TGI: 30.8 µM
OVCAR-5 ovarian
  GI50: 12.8 µM
  TGI: 25.5 µM
K-562 leukemia
  GI50: 4.72 µM
  TGI: > 100 µM
HL-60(TB) leukemia
  GI50: 16.3 µM
  TGI: > 100 µM
SK-MEL-2 melanoma
  GI50: 13.8 µM
  TGI: 27.4 µM
SK-OV-3 ovarian
  GI50: 30.5 µM
  TGI: > 100 µM
NCI-H460 lung
  GI50: 8.2 µM
  TGI: 23.3 µM
A498 renal
  GI50: 13.5 µM
  TGI: 26.8 µM
OVCAR-8 ovarian
  GI50: 13.3 µM
  TGI: 28.9 µM
